Experiments:
Type in all cases: cell-based
[1] = test system: TGF-β1-stimulated Smad2 phosphorylation in Mv1Lu cells; assay: TGF-β1-stimulated Smad2 phosphorylation, quantitative Western blot (P-Smad2/Smad2); settings: for time dependence of the effect on TGF-β1-stimulated Smad2 phosphorylation: 20 LM MDC, 40 μM monensin, 20 μM TFP, 100 pM TGF-β1, several time periods; for concentration dependence of the effect on TGF-β1-stimulated Smad2 phosphorylation: several concentrations of the inhibitors, 100 pM TGF-β1 for 30 min
Protocol: (A-I, K) Cells were pretreated with 10 mg/ml β-CD (A, K), 20 LM MDC (B), 40 μM monensin (C), 20 μM TFP (D) and 0.45 M sucrose (K) or several concentrations (as indicated) of β-CD (E), TFP (F), monensin (G), chloroquine (H), dynasore (I), at 37° C. for 1 h. The cells were then stimulated with vehicle only or […] TGF-β1 (A to I) or several concentrations (as indicated) of TGF-β1 (K). After several time periods, as indicated, at 37° C., cell lysates were analysed by 7.5% SDS PAGE followed by Western blot analysis using antibodies to P-Smad2 and Smad2 and chemiluminescence development (a or top) and quantitation by densitometry (b or bottom). The relative level of P-Smad2 was expressed as arbitrary units (A.U.) (A, B, C, D, K) (b). The relative level of P-Smad2 in cells treated with TGF-β alone was taken as 100% of control (E to I, bottom). The data shown is representative of 3 independent experiments. (J) Cells were pretreated with 10 mg/ml β-CD (c,d) at 37° C. for 1 h. The cells were then stimulated with vehicle only (a) or with 100 pM TGF-β (b,d). After 30 min at 37° C. the cells were fixed and subjected to indirect immunofluorescent staining using antibody to P-Smad2. The magnification is 200×. The data shown is representative of 3 independent experiments.
If TGF-β-induced signaling occurs in endosomes, as reported previously^6-15, inhibitors of clathrin-dependent endocytosis would be expected to attenuate TGF-β-stimulated signaling such as Smad2 phosphorylation and nuclear colocalization^4,5. To test this, Mv1Lu cells were pretreated with vehicle only or with clathrin-dependent endocytosis inhibitors at 37° C. for 30 min and then treated with or without 100 pM TGF-β1. After several time periods, the relative levels of P-Smad2 in treated and stimulated cells were analyzed by quantitative Western blot analysis using antibodies to P-Smad2 and Smad2. […] After stimulation of cells with TGF-β1 for 60 min, β-CD, TFP, MDC and monensin enhanced TGF-β1-stimulated Smad2 phosphorylation by ˜1.5-2.5 fold (FIGS. 1Ab, 1Bb, 1Cb, and 1Db). To further characterize the effects of these inhibitors on Smad2 phosphorylation, Mv1Lu cells were pretreated with vehicle only or with several concentrations of the inhibitors at 37° C. for 30 min and then stimulated with 100 pM of TGF-β1. After 30 min at 37° C., cell lysates were subjected to Western blot analysis using antibodies to P-Smad2 and Smad2 followed by quantitation with densitometry. […] To determine the effect of β-CD on TGF-β1-stimulated nuclear localization of P-Smad2, Mv1Lu cells were pretreated with vehicle only or with β-CD (10 mg/ml). After 1 h at 37° C., cells were stimulated with TGF-β1 ([…]) for 30 min. The nuclear localization of P-Smad2 was then analyzed by indirect fluorescent staining.
To define the coated-pit stages that are important in TGF-β1-induced signaling, we treated Mv1Lu cells with hyperosmotic sucrose (0.45 M) or β-CD and examined TGF-β1-stimulated Smad2 phosphorylation in these cells. […] In cells stimulated with 100 pM TGF-β1, hyperosmotic sucrose attenuated Smad2 phosphorylation by ˜60% (FIG. 1Kb). On the other hand, β-CD enhanced TGF-β1-stimulated Smad2 phosphorylation at all concentrations of TGF-β1. It enhanced TGF-β1-stimulated Smad2 phosphorylation by 2-4 fold when compared with the control (treatment without β-CD) (FIGS. 1Ka and 1Kb).

[2] = test system: TβR-I and SARA at the plasma membrane in Mv1Lu cells; assay: Co-localization and accumulation of TβR-I and SARA, immunofluorescent microscopy; settings: 20 μM TFP, 10 mg/ml β-CD, 40 μM dynasore, 200 μM chloroquine, with 100 pM TGF-β1, 30 min
Protocol: Cells were pretreated with vehicle only or 20 μM TFP, 10 mg/ml β-CD, 40 μM dynasore (Dyn) and 200 μM chloroquine (CQ) at 37° C. for 1 h. Treated cells were then stimulated with and without 100 pM TGF-β1. After 30 min at 37° C., cells were fixed and analyzed by indirect immunofluorescent staining using antibody to TβR-I (panels 1-10) and SARA (panels 11-20), DAPI (nuclear) staining was also performed (panels 21-30). Merged staining is also shown (panels 31-40). Insets indicate the co-localization and accumulation of SARA and TβR-I at the plasma membrane.
TGF-β stimulates Smad2 phosphorylation by inducing association of TβR-I and SARA^6,7 (which serves as an anchor for Smad2), binding of Smad2 to SARA, and subsequent phosphorylation of Smad2 by TβR-I in the TβR-1-SARA-Smad2 complex. If clathrin-dependent endocytosis inhibitors enhance TGF-β-induced signaling (TGF-β-stimulated Smad2 phosphorylation) by increasing accumulation of TβR-I/TβR-II complexes at the coated pits, they should promote co-localization and accumulation of TβR-I and SARA at the plasma membrane. To test this, Mv1Lu cells were stimulated with 100 pM TGF-β1. After 30 min at 37° C., […] analyzed by immunofluorescent microscopy using antibodies to TβR-I and SARA. […] This is consistent with the previous report that TGF-β enhances TGF-β receptor internalization^16.

[3] = test system: nuclear localization of P-Smad2 in Mv1Lu cells; assay: Nuclear localization of P-Smad2, indirect immunofluorescent staining; settings: β-CD 10 mg/ml 1 h, then TGF-β1 (10 pM) for 30 min
Protocol: (A-I, K) Cells were pretreated with 10 mg/ml β-CD (A, K), 20 LM MDC (B), 40 μM monensin (C), 20 μM TFP (D) and 0.45 M sucrose (K) or several concentrations (as indicated) of β-CD (E), TFP (F), monensin (G), chloroquine (H), dynasore (I), at 37° C. for 1 h. The cells were then stimulated with vehicle only or […] TGF-β1 (A to I) or several concentrations (as indicated) of TGF-β1 (K). After several time periods, as indicated, at 37° C., cell lysates were analysed by 7.5% SDS PAGE followed by Western blot analysis using antibodies to P-Smad2 and Smad2 and chemiluminescence development (a or top) and quantitation by densitometry (b or bottom). The relative level of P-Smad2 was expressed as arbitrary units (A.U.) (A, B, C, D, K) (b). […]
If TGF-β-induced signaling occurs in endosomes, as reported previously^6-15, inhibitors of clathrin-dependent endocytosis would be expected to attenuate TGF-β-stimulated signaling such as Smad2 phosphorylation and nuclear colocalization^4,5. […] After several time periods, the relative levels of P-Smad2 in treated and stimulated cells were analyzed by quantitative Western blot analysis using antibodies to P-Smad2 and Smad2. […] After 30 min at 37° C., cell lysates were subjected to Western blot analysis using antibodies to P-Smad2 and Smad2 followed by quantitation with densitometry. […]

| Compound | time dependence of the effect on TGF-β1-stimulated Smad2 phosphorylation ([1]; 10 mg/ml β-CD) | concentration dependence of the effect on TGF-β1-stimulated Smad2 phosphorylation [1] | co-localization and accumulation of TβR-I and SARA at the plasma membrane, co-treatment with TGF-β1 [2] | attenuation of Smad2 phosphorylation ([1]; hyperosmotic sucrose 0.45 M, cells stimulated with 100 pM TGF-β1) [%] | effect on TGF-β1-stimulated Smad2 phosphorylation ([1]; hyperosmotic sucrose 0.45 M, various concentrations of TGF-β1) | nuclear localization of P-Smad2 [3] | enhancement of TGF-β1-stimulated Smad2 phosphorylation compared with the control (treatment without β-CD) ([1]; 10 mg/ml β-CD, all concentrations of TGF-β1) |
| --- | --- | --- | --- | --- | --- | --- | --- |
| CN(C)c1cccc2c(S(=O)(=O)NCCCCCN)cccc12 [MDC, monodansylcadaverine] | enhanced TGF-β1-stimulated Smad2 phosphorylation in a time-dependent manner |  |  |  |  |  |  |
| CN(C)CCCN1c2ccccc2Sc2ccc(C(F)(F)F)cc21 [TFP, triflupromazine] | enhanced TGF-β1-stimulated Smad2 phosphorylation in a time-dependent manner | enhanced TGF-β1-stimulated Smad2 phosphorylation in a concentration-dependent manner | promoted co-localization and accumulation of TβR-I and SARA at the plasma membrane |  |  |  |  |
| CCN(CC)CCCC(C)Nc1ccnc2cc(Cl)ccc12 (stereo not drawn) [chloroquine] |  | enhanced TGF-β1-stimulated Smad2 phosphorylation in a concentration-dependent manner | promoted co-localization and accumulation of TβR-I and SARA at the plasma membrane |  |  |  |  |
| OC[C@H]1O[C@@](CO)(O[C@H]2O[C@H](CO)[C@@H](O)[C@H](O)[C@H]2O)[C@@H](O)[C@@H]1O [hyperosmotic sucrose, sucrose] |  |  |  | ~60 | inhibited TGF-β1-stimulated Smad2 phosphorylation |  |  |
| CC[C@@]1([C@@H]2O[C@@H]([C@H]3O[C@@](O)(CO)[C@H](C)C[C@@H]3C)C[C@@H]2C)CC[C@H]([C@]2(C)CC[C@]3(C[C@H](O)[C@@H](C)[C@@H]([C@@H](C)[C@@H](OC)[C@H](C)C(=O)O)O3)O2)O1 [monensin] | enhanced TGF-β1-stimulated Smad2 phosphorylation in a time-dependent manner | enhanced TGF-β1-stimulated Smad2 phosphorylation in a concentration-dependent manner |  |  |  |  |  |
| methyl-β-cyclodextrin [β-CD] | enhanced TGF-β1-stimulated Smad2 phosphorylation in a time-dependent manner | enhanced TGF-β1-stimulated Smad2 phosphorylation in a concentration-dependent manner | promoted co-localization and accumulation of TβR-I and SARA at the plasma membrane |  |  | β-CD and TGF-β1 together promoted nuclear localization of P-Smad2 | 2-4 fold |

Source: patent publication US8487006B2, “Method of enhancing TGF-β signalling” (Auxagen, Inc., priority 2008, dated 2013)
